According to patent US20170000749A1, “Methods for Treating Cognitive Disorders Using Inhibitors of Histone Deacetylase” (Forum Pharmaceuticals, Inc., priority 2008, published 2017):

System: Drosophila Huntington's Disease model flies
Assay: In Vivo Drosophila Fly Assay for Treatment of Huntington's Disease (automated climbing behavioral assay)
Set-up: species or system Drosophila melanogaster
Details: for Speed 1 to 7 (concentration) 30 uM / Speed 1 to 7 (concentration) 100 uM / Speed 1 to 7 (concentration) 300 uM: effect size of early speed (days 1-7) vs DMSO-carrier control; for Speed 8 to 10 (concentration) 30 uM / Speed 8 to 10 (concentration) 100 uM / Speed 8 to 10 (concentration) 300 uM: effect size of late speed (days 8-10) vs DMSO-carrier control
Excerpt: The Drosophila Huntington's Disease assay used to screen compounds of the present disclosure followed that of WO 2007/002497, which is hereby incorporated by reference in its entirety.
Briefly, parental (model and driver) lines are maintained in sufficient quantities to provide virgins and males for assay crosses as well as perpetuating the lines. Disease model flies are maintained with the disease genes “silent”, functionally linked to a UAS enhancer element. The “driver” lines contain a GAL4 element under the control of a tissue-specific promoter. These are crossed together to generate the assay flies which have tissue-specific (i.e. CNS) expression of the disease gene(s).
Weekly assay crosses are set up with sufficient virgins and males to generate enough assay embryos for sorting. Approximately 50,000 males and 75,000 virgins are crossed in population cages. Embryos are collected for an eight hour window two days later. The embryos are then sorted onto 16 mm assay vials containing regular fly media and allowed to develop. Flies containing both the GAL4 driver element and the disease gene(s) are detected by the presence of GFP, a fluorescing protein. Approximately 10 assay flies eclose per vial, the optimal number for the behavioral assay. Once the flies eclose, they are transferred onto assay vials containing liquid Drosophila food. Similarly, control crosses are set up with virgins of the driver and males from a non-disease UAS line. Throughout fly production and the assay days, all flies are maintained at constant temperature and humidity, with preset light cycle, optimized for the particular lines and crosses.
Quality control (QC) for the parental lines is carried out weekly by collecting a sample of random male flies from each line. Single-fly PCR is carried out to ascertain the presence of the GAL4 or UAS element. If greater than 5% of the individuals lack the appropriate element, the assay cross is aborted. A second form of QC is also carried out to ensure that the GAL4 element is able to drive expression of a transgene. A sample of individual “driver” virgins is crossed to UAS-GFP males. Their progeny are visually checked for GFP expression in the appropriate tissues. Lack of GFP in greater than 4% of the crosses results in the assay being aborted.
Test compounds are weighed out and dissolved in DMSO at stock concentrations 100× what is desired in the assay and arrayed into 96-well master plates, including wells for DMSO-only controls and the positive control(s). A single well is reserved for a colored dye used to ensure proper orientation of compounds during drug dispensing and fly transfer. Replicate daughter plates for each day of the assay are stamped out. The plates are bar coded and stored at −20 C until used for the assay.
For a particular assay day, the plates are thawed and a robotic liquid handler is used to dilute the test compound into the liquid fly food and dispense the mixture into the assay vials. For Huntington Disease (HD) models, eight replicates per single treatment (one compound, one concentration) are dispensed. Fresh test compound treated media is made daily during an assay.
On the day the assay flies eclose (emerge from […]; assay Day 0) they are transferred to the test compound treated vials. On assay Day 1, the flies are transferred onto clean test compound treated vials one hour before assay time. They are then placed in the assay machine to acclimate to the appropriate climate conditions.
The assay machine is an environmentally-enclosed and controlled robot that can maintain user-set temperature and humidity. The machine can hold up to sixteen 96-vial racks in four quadrants, for a total of 1536 vials. There are four camera stations, which hold four vials each and a CCD camera for movie capture. […]

Structure (SMILES) | Speed 1 to 7 (concentration) 30 uM | Speed 1 to 7 (concentration) 100 uM | Speed 1 to 7 (concentration) 300 uM | Speed 8 to 10 (concentration) 30 uM | Speed 8 to 10 (concentration) 100 uM | Speed 8 to 10 (concentration) 300 uM
O=C(NO)c1cnc(N2CC3CC2CN3c2cccc(C(F)(F)F)c2)nc1 (stereo not shown) | 0.02 | 0.48 | 0.506 | −0.14 | 0.3 | −0.112
O=C(NO)c1cnc(N2CC3CC2CN3c2cccc(OC(F)(F)F)c2)nc1 (stereo not shown) | 0.05 | −0.01 | 0.68 | 0.15 | 0.16 | 0.35
O=C(NO)c1cnc(N2CC3CC2CN3c2ccc3c(c2)OC(F)(F)O3)nc1 (stereo not shown) | 0.28 | 0.64 | 0.66 | 0.22 | 0.46 | 0.58
O=C(NO)c1cnc(N2CC3CC2CN3c2cccc(SC(F)(F)F)c2)nc1 (stereo not shown) | 0.63 | 0.38 | 0.03 | 0.28 | 0.02 | −0.29
O=C(NO)c1cnc(N2CC3CC2CN3c2cc(C(F)(F)F)ccn2)nc1 (stereo not shown) | 0.468 | 0.82 | 0.3 | 0.087 | 0.82 | 0.54
O=C(NO)c1cnc(N2CC3CC2CN3c2cccc(C(F)(F)F)n2)nc1 (stereo not shown) | 0.781 | 0.549 | 0.411 | 0.291 | 0.376 | 0.471
O=C(NO)c1cnc(N2CC3CC2CN3c2cccc3nonc23)nc1 (stereo not shown) | – | 0.84 | 0.68 | – | 0.26 | 0.5
Cc1ccc(N2CC3CC2CN3c2ncc(C(=O)NO)cn2)cc1 (stereo not shown) | −0.007 | 0.046 | 0.829 | −0.134 | −0.369 | −0.107
CC(C)OC(=O)N1CC2CC1CN2c1ncc(C(=O)NO)cn1 (stereo not shown) | 0.495 | 0.33 | −0.469 | 0.338 | 0.368 | 0.512
Cc1cccc(N2CC3CC2CN3c2ncc(C(=O)NO)cn2)c1 (stereo not shown) | 0.493 | 0.588 | 0.412 | 0.036 | 0.359 | 0.439
O=C(NO)c1ccc(C2=Nc3ccccc3Oc3ccc(F)cc32)cc1 [drawing 821] | 0.118 | −0.004 | 0.444 | −0.108 | 0.139 | 0.47
